Earlier results as cited in patent US20200368246A1, “COMBINATION THERAPY TARGETING CANCER ASSOCIATED WITH THE HEDGEHOG PATHWAY” (priority 2017, published 2020).
Like-named read-outs stand apart in the source and are kept apart here.

Experiments:
[1] = tested on: advanced and metastatic basal cell carcinoma; conditions: monotherapy
[2] = for patients who experience treatment-emergent adverse events: monotherapy at recommended dose; for patients who experienced adverse side effects: muscle spasms, alopecia, taste loss, weight loss, fatigue
basal cell carcinoma = conditions: patient
[3] = nineteen patients; grade 2 fatigue and grade 4 congestive heart failure
[4] = metastatic basal cell carcinoma

Molecule | mean time for secondary resistance [1] | treated patients with secondary resistance [1] | response rate ([1]; advanced basal cell carcinoma) | response rate [1, 4] | patients who experience treatment-emergent adverse events [2] | patients with severe grade 3 or 4 adverse reactions ([2]; monotherapy trial) | patients who experienced adverse side effects ([2]; monotherapy trial) | tumor shrinkage (basal cell carcinoma; clinical trial, within the first several months) | tumor outcome on second course (basal cell carcinoma; placed back on the drug after radiation) | patients who had to discontinue treatment due to toxic effects ([2]; monotherapy trial) | adverse events associated with treatment [3] | effectiveness (basal cell carcinoma; 3 cycles)
CS(=O)(=O)c1ccc(C(=O)Nc2ccc(Cl)c(-c3ccccn3)c2)c(Cl)c1 [Erivedge®, vismodegib] | about 52 weeks | 21% | 43% | 30% | Ninety-five to one hundred percent | 25% | 33% | 70% | the tumor developed resistance to the drug |  |  | 
Cc1c(C(=O)Nc2ccc(N3C[C@@H](C)O[C@@H](C)C3)nc2)cccc1-c1ccc(OC(F)(F)F)cc1 [Odomzo®, sonidegib] | about 52 weeks | 21% | 47% | 17.4% | Ninety-five to one hundred percent |  | 32% |  |  | 22% |  | 
CCC(C)n1ncn(-c2ccc(N3CCN(c4ccc(OCC5COC(Cn6cncn6)(c6ccc(Cl)cc6Cl)O5)cc4)CC3)cc2)c1=O (stereo not drawn) [itraconazole] |  |  |  |  |  |  |  |  |  |  | two adverse events | 
pembrolizumab [Keytruda] |  |  |  |  |  |  |  |  |  |  |  | failed to show effectiveness
